Test results published in paper PMC9530166, “Allosteric regulation of glycogen breakdown by the second messenger cyclic di-GMP” (Nature Communications, 2022).
Entries after “also recorded” stand apart in the source; their conditions may differ.

Columns and labels:
[1] = target: T1, His6-GlgXEC (Escherichia coli, UniProt P15067); experiment: DRaCALA with [32P]-c-di-GMP, E. coli GlgX; format: binding; conditions: 15 µg E. coli His6-GlgX
T1 construct: made in house; host or cells: E. coli Rosetta (DE3), pET15b
Protocol: (§1) For DRaCALA assays, purified His6-GlgX (15 μg) was mixed with 0.5 μl undiluted [^32P]-c-di-GMP (42 nM) (Hartmann Analytic GmbH, Braunschweig) in binding buffer (25 mM Tris pH 8; 150 mM NaCl; 2.5% (v/v) glycerol; 5 mM MgCl2) and the reaction was incubated at rt for 5 min. For competition assays, 100 μM nonlabeled nucleotides were added to the samples and incubated at rt for 5 min prior to the addition of [^32P]-c-di-GMP. Reactions (10 μl) were spotted on the same nitrocellulose membrane (Roth), air dried for 10 min and analyzed via phosphorimaging.
(a) 15 µg of purified E. coli His6-GlgX
167 or His6-Vnz25270, respectively, were mixed with 0.5 µl of [32P]-c-di-GMP (Hartmann Analytic
168 GmbH, Braunschweig) in binding buffer (25 mM Tris pH 8.0, 150 mM NaCl, 2.5% (v/v) glycerol
169 and 5 mM MgCl2). 10 µL of the reactions were spotted on the same nitrocellulose membrane (Roth),
170 air dried for 10 min and analyzed by phosphorimaging. (b, c) 10 µM purified His6-Vnz25270 (b) or
171 His6-GlgXE.coli (c) in 25 mM Tris pH 8.0, 150 mM NaCl, 2.5% (v/v) glycerol and 5 mM MgCl2 were
172 incubated without or with (1 mM) c-di-GMP. Reactions were analyzed in a Tycho NT.6
173 (NanoTemper Technologies) device.
(§2) (1 picture or pasted object on this page, not shown here)

[2] = tested on: His6-GlgXDETR(49-52); experiment: DRaCALA with [32P]-c-di-GMP, RETD49-52 swap mutant; format: binding, Streptomyces venezuelae; conditions: His6-GlgXDETR(49-52) mutant
Protocol: as §1
(§3) 217 Supplementary Fig. 5: NanoDSF assays with mutagenized His6-GlgX variants. (a) Swap of the
(§4) 219 This was confirmed by DRaCALA, right. For DRaCALA assays, 15 µg of purified E. coli His6-GlgX
(§5) 220 or His6-Vnz25270, respectively, were mixed with 0.5 µl of [32P]-c-di-GMP (Hartmann Analytic
(§6) 221 GmbH, Braunschweig) in binding buffer (25 mM Tris pH 8.0, 150 mM NaCl, 2.5% (v/v) glycerol
222 and 5 mM MgCl2). 10 µl of the reactions were spotted on the same nitrocellulose membrane (Roth),
223 air dried for 10 min and analyzed by phosphorimaging. (b) Changing the RLVD motif (amino acids
as §2

[3] = tested on: His6-GlgXDETR(49-52); experiment: nanoDSF thermal shift assay, RETD49-52 swap mutant; format: binding, Streptomyces venezuelae; conditions: His6-GlgXDETR(49-52) mutant
Protocol: Arginine and aspartic acid arranged in an RxxD motif are often found as c-di-GMP binding signatures in effector proteins[28],[34]. […] To determine if either of these motifs are involved in c-di-GMP binding, we swapped the arginine and aspartic acid residues in the two motifs and purified His6-GlgXDETR(49-52) and His6-GlgXDLVR(212-215).
For label-free thermal shift assay experiments, 10 μM purified protein in 25 mM Tris pH 8, 150 mM NaCl, 2.5% (v/v) glycerol, and 5 mM MgCl2 was incubated without or with (1 mM) of nonlabeled c-di-GMP or c-di-AMP, respectively, at rt for 10 min. Reactions were subsequently analyzed in a Tycho NT.6 (NanoTemper Technologies) device with a 30 K/min thermal ramp and the internal fluorescence at 330 and 350 nm was recorded. Data analysis and calculation of derivatives was done using the internal evaluation features of the Tycho instrument.
as §3, §4, §5, §6
222 and 5 mM MgCl2). […]
223 air dried for 10 min and analyzed by phosphorimaging. […]

[4] = target: GlgX (Streptomyces venezuelae, UniProt F2RAW5); experiment: Fluorescence polarization (FP) binding, wild-type GlgX; conditions: summary value of FP (Fig. 5c) and MST (Supplementary Fig. 8); read-out: affinity of GlgX for c-di-GMP
From the text: Fig. 5 Structure of the S. venezuelae GlgX-c-di-GMP complex. a Ribbon diagram of the S. venezuelae GlgX-c-di-GMP complex with one GlgX subunit colored cyan and the other salmon. Shown as sticks are the c-di-GMP molecules bound at each end of the antiparallel dimer. […] There was clear density for each c-di-GMP molecule. b Close up of the GlgX-c-di-GMP binding interaction. Key residues mediating contacts to the c-di-GMP are shown as sticks and labeled. Hydrogen bonds from GlgX residues that specify binding to the guanine are indicated by yellow dashed lines. c Fluorescence polarization (FP) binding isotherm showing interaction of GlgX, GlgXE47A-R49A and GlgXR438A-R579A for F-c-di-GMP in red, green and blue respectively. Also shown is the binding isotherm for GlgX binding to F-c-di-AMP in black. […] The y-axis and x-axis are millipolarization (mP) units and GlgX concentration (μM), respectively. Shown are representative binding curves for each. The experiments were performed in technical triplicates and the error between measurements reported. Error bars represent SD of the measurements. Source data are provided in the Source data file.
Thus, we used this F-tagged c-di-GMP in fluorescence polarization (FP) studies to quantify the interaction between GlgX and c-di-GMP. […] To ensure that the presence of the fluorescent tag was not impacting the GlgX interaction with c-di-GMP we used microscale thermophoresis (MST) to quantify c-di-GMP binding to GlgX. […] But to further probe the structural model we created GlgXE47A-R49A and GlgXR438A-R579A mutants and performed FP studies with these proteins.
To measure c-di-GMP binding to GlgX and GlgX mutants, 2′-O-(6-[Fluoresceinyl]aminohexylcarbamoyl)-cyclic diguanosine monophosphate (2′-Fluo-AHC-c-di-GMP) (BioLog), was used as a fluoresceinated reporter ligand. This molecule is conjugated via a nine atom spacer to one of the c-di-GMP 2′ hydroxyl groups. […] 2′-O-(6-[Fluoresceinyl]aminohexylcarbamoyl)-cyclic diadenosine monophosphate (2′-Fluo-AHC-c-di-AMP) (BioLog) was also used in binding studies to assess specificity of GlgX for c-di-GMP. […]

T1 sequence (P15067 whole entry): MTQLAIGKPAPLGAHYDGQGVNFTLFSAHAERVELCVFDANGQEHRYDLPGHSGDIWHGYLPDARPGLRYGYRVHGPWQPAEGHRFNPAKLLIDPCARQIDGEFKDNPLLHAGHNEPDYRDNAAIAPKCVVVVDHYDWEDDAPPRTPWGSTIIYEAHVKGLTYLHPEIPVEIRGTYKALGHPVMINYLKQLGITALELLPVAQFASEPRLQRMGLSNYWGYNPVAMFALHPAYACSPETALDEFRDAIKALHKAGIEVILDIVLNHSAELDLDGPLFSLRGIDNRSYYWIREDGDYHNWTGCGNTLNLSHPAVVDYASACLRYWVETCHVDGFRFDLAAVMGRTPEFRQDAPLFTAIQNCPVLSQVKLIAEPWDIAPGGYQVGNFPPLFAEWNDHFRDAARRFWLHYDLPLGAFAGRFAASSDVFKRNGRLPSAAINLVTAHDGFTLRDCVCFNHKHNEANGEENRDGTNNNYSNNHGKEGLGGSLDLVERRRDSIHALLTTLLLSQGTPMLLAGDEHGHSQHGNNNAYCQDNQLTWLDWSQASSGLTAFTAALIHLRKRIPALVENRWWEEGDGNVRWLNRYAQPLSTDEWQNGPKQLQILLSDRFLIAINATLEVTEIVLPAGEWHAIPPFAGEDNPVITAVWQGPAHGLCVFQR
GlgX, sequence (F2RAW5 entry or part of it): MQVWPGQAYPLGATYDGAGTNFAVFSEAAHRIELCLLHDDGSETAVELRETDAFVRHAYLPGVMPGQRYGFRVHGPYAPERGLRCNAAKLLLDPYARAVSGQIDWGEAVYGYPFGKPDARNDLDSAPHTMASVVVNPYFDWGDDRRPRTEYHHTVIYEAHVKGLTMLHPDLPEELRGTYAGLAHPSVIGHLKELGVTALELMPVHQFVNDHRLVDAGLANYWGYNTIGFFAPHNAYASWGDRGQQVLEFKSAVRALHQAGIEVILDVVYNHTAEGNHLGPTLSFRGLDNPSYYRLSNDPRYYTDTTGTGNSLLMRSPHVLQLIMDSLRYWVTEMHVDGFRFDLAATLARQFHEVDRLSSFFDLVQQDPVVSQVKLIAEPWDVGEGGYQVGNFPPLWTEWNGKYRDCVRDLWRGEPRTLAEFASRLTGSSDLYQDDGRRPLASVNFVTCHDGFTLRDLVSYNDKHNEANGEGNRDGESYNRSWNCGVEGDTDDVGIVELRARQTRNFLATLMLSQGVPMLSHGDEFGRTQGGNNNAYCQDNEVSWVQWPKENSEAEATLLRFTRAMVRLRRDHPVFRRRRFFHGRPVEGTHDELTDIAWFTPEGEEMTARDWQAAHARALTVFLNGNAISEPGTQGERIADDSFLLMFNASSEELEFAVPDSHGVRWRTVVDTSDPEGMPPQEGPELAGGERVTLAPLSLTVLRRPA

## Nc1nc2c(ncn2[C@@H]2O[C@@H]3CO[P@](=O)(O)O[C@H]4[C@@H](O)[C@H](n5cnc6c(=O)[nH]c(N)nc65)O[C@@H]4CO[P@](=O)(O)O[C@H]3[C@H]2O)c(=O)[nH]1 [c-di-GMP, bis-(3′−5′)-cyclic diguanosine monophosphate]
[1]
  binding of [32P]-c-di-GMP in DRaCALA: did not detect any interactions
[2]
  binding of c-di-GMP in DRaCALA: does not bind c-di-GMP
[3]
  effect of c-di-GMP in nanoDSF: abolishes c-di-GMP binding; also recorded: no effect
[4]
  Kd: ~8 µM
